The values that follow come from patent US8372397B2, “Methods for regulation of stem cells” (priority 2004, dated 2013).

One series concerns GSK-3. As to conditions: Ring et al. 2003 / Cline et al. 2002, cited from earlier work; for EC50: read-out: half-maximal effective concentration [EC50].
For series [1] the following is noted: mouse, in vivo, ip, 30 mg/kg.
Description: (b) Blood glucose levels in peripheral blood of recipient mice following 5-week in vivo administration of 30 mg/kg GSK-3 inhibitor or vehicle control. Error bars represent SEM (n=6).

In the case of `Cc1c[nH]c(-c2cnc(NCCNc3ccc(C#N)cn3)nc2-c2ccc(Cl)cc2Cl)n1` [CHIR-911], in the series on GSK-3, the EC50 is […]. In addition, the “glycemic state (blood glucose) of transplanted recipients” value in series [1] was “maintaining a normoglycemic state”.

Turning to `O=[N+]([O-])c1ccc(NCCNc2ncc(-c3ncc[nH]3)c(-c3ccc(Cl)cc3Cl)n2)nc1` [CHIR-837], in the series on GSK-3, the “selectivity for GSK-3” value was > 5,000 fold and the EC50 was 375 nM.
